For 11 molecules, IC50 results are on record in patent US20200216416A1, “QUINOLINE COMPOUNDS AS INHIBITORS OF TAM AND MET KINASES” (Array BioPharma Inc., priority 2019, published 2020).

Structures are written as SMILES.

One test deals with T1, human MET kinase L1195V (Homo sapiens, UniProt P08581, L1195V).
T1 construct: GST-tagged recombinant human MET kinase domain; purchased Signal Chem
As to the kind of experiment: c-Met Enzyme Assay, L1195V mutant. In kind it is binding. Conditions: averaged IC50; L1195V 10 nM; 60-minute incubation at 22° C. The method, then:
(§1) The affinity of compound binding to wild type and mutant human MET kinases was measured using Invitrogen's LanthaScreen™ Eu Kinase Binding technology. Briefly, GST-tagged recombinant human MET kinase domain from Signal Chem (see Table 8 below for concentration in assay) was incubated with 50 nM Alexa-Fluor® Tracer 236 (Invitrogen Cat No. PR9078A) and 2 nM Europium-anti-GST (Invitrogen Cat. No. A15116) along with test compound in a buffer consisting of 25 mM HEPES, pH 7.4, 10 mM MgCl2, 0.01% Triton X-100, 1mM DTT, and 2% DMSO. Compounds were typically prepared in a three-fold serial dilution in DMSO and added to the assay to give the appropriate final concentration. After a 60-minute incubation at 22° C., the reaction was measured using a PerkinElmer EnVision multimode plate reader via TR-FRET dual wavelength detection, and the percent of control (POC) calculated using a ratiometric emission factor. […] The POC values were fit to a 4 parameter logistic curve and the IC50 value is point where the curve crosses 50 POC.

For another test, the target named is T2, human MET kinase Y1230S (Homo sapiens, UniProt P08581, Y1230S).
T2 construct: GST-tagged recombinant human MET kinase domain; purchased Signal Chem
As to the kind of experiment: c-Met Enzyme Assay, Y1230S mutant. The test is classed as binding. Particulars: averaged IC50; Y1230S 8 nM; 60-minute incubation at 22° C.; read-out: Y1230 S IC50. How it is done: as §1

Another test has as its target T3, human MET kinase Y1230C (Homo sapiens, UniProt P08581, Y1230C).
T3 construct: GST-tagged recombinant human MET kinase domain; purchased Signal Chem
As to the kind of experiment: c-Met Enzyme Assay, Y1230C mutant. In kind it is binding. Conditions: averaged IC50; Y1230C 2 nM; 60-minute incubation at 22° C.; read-out: Y1230 C IC50. How it is done: as §1

For a further test, the target named is T4, human MET kinase D1228N (Homo sapiens, UniProt P08581, D1228N).
T4 construct: GST-tagged recombinant human MET kinase domain; purchased Signal Chem
Kind of test: c-Met Enzyme Assay, D1228N mutant. In kind it is binding. Particulars: averaged IC50; D1228N 2 nM; 60-minute incubation at 22° C.; read-out: D1228 N IC50. How it is done: as §1

In another test the target is T5, human MET kinase Y1230H (Homo sapiens, UniProt P08581, Y1230H).
T5 construct: GST-tagged recombinant human MET kinase domain; purchased Signal Chem
Kind of test: c-Met Enzyme Assay, Y1230H mutant. In kind it is binding. Particulars: averaged IC50; Y1230H 5 nM; 60-minute incubation at 22° C.; read-out: Y1230 H IC50. How it is done:
as §1

The target of test [1] is T6, His-tagged recombinant human MER cytoplasmic domain (Homo sapiens, UniProt Q12866).
T6 construct: His-tagged recombinant human MER cytoplasmic domain
T6 sequence (Q12866 527-999 limits assumed): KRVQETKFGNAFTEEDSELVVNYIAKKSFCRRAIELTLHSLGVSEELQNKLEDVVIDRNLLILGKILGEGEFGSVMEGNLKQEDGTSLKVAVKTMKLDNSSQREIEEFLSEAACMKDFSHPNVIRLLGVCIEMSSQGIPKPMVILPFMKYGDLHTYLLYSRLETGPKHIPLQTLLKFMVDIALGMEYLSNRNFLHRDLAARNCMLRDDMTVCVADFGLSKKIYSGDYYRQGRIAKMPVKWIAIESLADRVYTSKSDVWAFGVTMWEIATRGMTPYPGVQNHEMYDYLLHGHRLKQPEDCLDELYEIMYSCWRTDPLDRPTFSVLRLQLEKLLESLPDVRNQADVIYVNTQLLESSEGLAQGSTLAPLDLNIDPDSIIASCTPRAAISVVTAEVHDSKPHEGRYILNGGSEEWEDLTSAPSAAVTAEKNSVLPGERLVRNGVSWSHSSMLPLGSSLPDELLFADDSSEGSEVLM
As to the kind of experiment: MER Enzyme Assay (LanthaScreen Eu Kinase Binding). Conditions: averaged IC50; MER 5 nM; 60-minute incubation at 22° C.; TR-FRET. The method, then:
Compounds disclosed herein were screened for their ability to inhibit […] kinase using Invitrogen's LanthaScreen™Eu Kinase Binding technology. His-tagged recombinant human MER cytoplasmic domain (5 nM) was incubated with 20 nM Alexa-Fluor® Tracer 236 (PR9078A), 2 nM biotinylated anti-His (Cat. No. M4408), and 2 nM europium-labeled Streptavidin (Cat. No. PV5899) along with test compound in a buffer consisting of 25 mM HEPES, pH 7.4, 10 mM MgCl 2, 0.01% Triton X-100, and 2% DMSO. Compounds were typically prepared in a threefold serial dilution in DMSO and added to the assay to give the appropriate final concentration. After a 60-minute incubation at 22° C., the reaction was measured using a PerkinElmer EnVision multimode plate reader via TR-FRET dual wavelength detection, and the percent of control (POC) was calculated using a ratiometric emission factor. […] The POC values are fit to a 4 parameter logistic curve and the IC50 value is point where the curve crosses 50 POC.

The target of a further test is T7, human MET kinase F1200I (Homo sapiens, UniProt P08581, F1200I).
T7 construct: GST-tagged recombinant human MET kinase domain; purchased Signal Chem
As to the kind of experiment: c-Met Enzyme Assay, F1200I mutant. In kind it is binding. Conditions: averaged IC50; F1200I 2 nM; 60-minute incubation at 22° C. How it is done:
as §1

In the next test the target is T8, human MET kinase D1228H (Homo sapiens, UniProt P08581, D1228H).
T8 construct: GST-tagged recombinant human MET kinase domain; purchased Signal Chem
As to the kind of experiment: c-Met Enzyme Assay, D1228H mutant. The test is classed as binding. Particulars: averaged IC50; D1228H 2 nM; 60-minute incubation at 22° C.; read-out: D1228 H IC50. How it is done: as §1

One may read the IC50 as the concentration that inhibits the measured activity by half.

T5 sequence (P08581 1078-1345 Y1230H): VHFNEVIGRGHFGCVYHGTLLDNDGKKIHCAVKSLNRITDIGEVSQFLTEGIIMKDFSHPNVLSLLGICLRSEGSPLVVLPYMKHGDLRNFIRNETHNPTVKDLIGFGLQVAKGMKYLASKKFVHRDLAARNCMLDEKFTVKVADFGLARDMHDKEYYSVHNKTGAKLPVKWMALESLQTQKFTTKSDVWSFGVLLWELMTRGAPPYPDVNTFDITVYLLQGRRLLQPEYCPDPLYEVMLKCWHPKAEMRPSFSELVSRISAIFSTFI
T4 sequence (P08581 1078-1345 D1228N): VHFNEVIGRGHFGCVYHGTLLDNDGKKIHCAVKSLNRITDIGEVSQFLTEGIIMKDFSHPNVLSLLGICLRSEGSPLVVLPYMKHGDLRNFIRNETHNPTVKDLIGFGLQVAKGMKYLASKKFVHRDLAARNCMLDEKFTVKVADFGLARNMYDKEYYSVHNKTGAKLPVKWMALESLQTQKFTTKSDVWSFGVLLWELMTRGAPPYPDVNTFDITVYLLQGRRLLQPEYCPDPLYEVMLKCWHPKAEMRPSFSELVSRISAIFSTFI
T7 sequence (P08581 1078-1345 F1200I limits assumed): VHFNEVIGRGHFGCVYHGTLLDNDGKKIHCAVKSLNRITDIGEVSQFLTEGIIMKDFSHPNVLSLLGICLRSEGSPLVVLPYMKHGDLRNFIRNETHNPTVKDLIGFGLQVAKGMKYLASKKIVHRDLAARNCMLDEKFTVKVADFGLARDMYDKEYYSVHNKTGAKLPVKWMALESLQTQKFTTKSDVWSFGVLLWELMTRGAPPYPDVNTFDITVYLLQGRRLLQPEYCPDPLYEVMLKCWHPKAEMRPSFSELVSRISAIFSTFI
T8 sequence (P08581 1078-1345 D1228H): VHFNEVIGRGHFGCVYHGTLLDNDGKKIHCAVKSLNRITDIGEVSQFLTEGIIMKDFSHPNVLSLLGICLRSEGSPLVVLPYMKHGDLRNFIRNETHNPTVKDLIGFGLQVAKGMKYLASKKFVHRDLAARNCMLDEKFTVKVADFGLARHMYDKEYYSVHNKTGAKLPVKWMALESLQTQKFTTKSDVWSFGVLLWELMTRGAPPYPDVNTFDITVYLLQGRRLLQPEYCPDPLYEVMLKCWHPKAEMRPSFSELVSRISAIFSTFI
T3 sequence (P08581 1078-1345 Y1230C): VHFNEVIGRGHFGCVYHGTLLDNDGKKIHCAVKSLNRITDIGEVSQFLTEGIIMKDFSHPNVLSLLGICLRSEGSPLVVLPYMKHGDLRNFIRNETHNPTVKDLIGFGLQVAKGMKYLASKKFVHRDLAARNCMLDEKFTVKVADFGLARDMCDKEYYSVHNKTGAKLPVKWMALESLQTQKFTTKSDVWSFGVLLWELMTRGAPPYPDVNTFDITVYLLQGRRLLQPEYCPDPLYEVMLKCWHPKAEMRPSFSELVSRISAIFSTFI
T1 sequence (P08581 1078-1345 L1195V limits assumed): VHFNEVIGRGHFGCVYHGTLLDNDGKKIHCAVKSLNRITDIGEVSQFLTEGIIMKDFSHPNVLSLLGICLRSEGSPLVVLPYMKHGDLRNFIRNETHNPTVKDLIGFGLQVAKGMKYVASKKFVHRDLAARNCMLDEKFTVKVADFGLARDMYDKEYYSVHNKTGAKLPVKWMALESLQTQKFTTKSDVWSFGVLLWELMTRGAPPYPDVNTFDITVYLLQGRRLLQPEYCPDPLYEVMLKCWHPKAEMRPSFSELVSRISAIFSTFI
T2 sequence (P08581 1078-1345 Y1230S): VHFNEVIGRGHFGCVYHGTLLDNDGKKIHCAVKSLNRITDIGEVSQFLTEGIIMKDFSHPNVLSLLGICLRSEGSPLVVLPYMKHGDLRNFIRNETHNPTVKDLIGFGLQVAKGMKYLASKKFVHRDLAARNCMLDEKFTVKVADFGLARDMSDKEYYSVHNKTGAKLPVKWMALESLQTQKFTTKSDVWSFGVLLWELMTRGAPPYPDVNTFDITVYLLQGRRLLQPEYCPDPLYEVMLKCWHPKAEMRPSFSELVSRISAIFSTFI

On to `COCCn1cc(C(=O)Nc2ccc(Oc3ccnc4cc(OC)c(OC)cc34)cn2)c(=O)c(-c2ccc(F)cc2)c1` [Example 7, N-(5((6,7-dimethoxyquinolin-4-yl)oxy)pyridin-2-yl)-5-(4-fluorophenyl)-1-(2-methoxyethyl)-4-oxo-1,4-dihydropyridine-3-carboxamide], for which the IC50 was 7.3 nM against human MET kinase L1195V; 2.1 nM at human MET kinase Y1230S; 2.9 nM at human MET kinase Y1230C; 6.4 nM on human MET kinase D1228N; 5.4 nM at human MET kinase Y1230H; 3 nM in test [1]. Moreover, the IC50 was determined as 3.7 nM against human MET kinase F1200I and 2 nM at human MET kinase D1228H.
`COc1cc2nccc(Oc3ccc(NC(=O)c4cn(C(C)C)cc(-c5ccc(F)cc5C)c4=O)nc3)c2cc1OC` [Example 19, N-(5-((6,7-dimethoxyquinolin-4yl)oxy)pyridin-2-yl)-5-(4-fluoro-2-methylphenyl)-1-isopropyl-4-oxo-1,4-dihydropyridine-3-carboxamide]: the IC50 is 10 nM at human MET kinase L1195V; 1.8 nM at human MET kinase Y1230S; 2 nM on human MET kinase Y1230C; 3.6 nM on human MET kinase D1228N; 2.7 nM at human MET kinase Y1230H; 2 nM in test [1]. The IC50 at human MET kinase F1200I worked out at 2.8 nM; at human MET kinase D1228H, 1.6 nM.
Regarding `COc1cc2c(Oc3ccc(NC(=O)c4cn(C(C)C)cc(-c5ccc(F)cc5)c4=O)nc3)ccnc2cc1OCCCN1CCOCC1` [Example 56, 5-(4-fluorophenyl)-1-isopropyl-N-(5-((6-methoxy-7-(3-morpholinopropoxy)quinolin-4-yl)oxy)pyridin-2-yl)-4-oxo-1,4-dihydropyridine-3-carboxamide], the IC50 amounted to 5.3 nM against human MET kinase L1195V; 3 nM on human MET kinase Y1230S; 3.2 nM on human MET kinase Y1230C; 4.3 nM on human MET kinase D1228N; 5.2 nM on human MET kinase Y1230H; 6 nM in test [1]. Moreover, the IC50 against human MET kinase F1200I is 5 nM; at human MET kinase D1228H it was 1.9 nM.
Regarding `COc1cc2nccc(Oc3ccc(NC(=O)c4cn(CCN(C)C)cc(-c5ccc(F)cc5)c4=O)nc3)c2cc1OC` [Example 46], the IC50 against human MET kinase L1195V was 21.9 nM; at human MET kinase Y1230S, 1.7 nM; on human MET kinase Y1230C, 1.7 nM; at human MET kinase D1228N, 5.4 nM; on human MET kinase Y1230H, 3.4 nM; in test [1] it was 2 nM. Moreover, the IC50 on human MET kinase F1200I was found to be 3.4 nM; at human MET kinase D1228H, 3.2 nM.
Take `COc1cc2nccc(Oc3ccc(NC(=O)c4cn(CC(=O)N(C)C)cc(-c5ccc(F)cc5)c4=O)nc3)c2cc1OC` [Example 23, N-(5-((6,7-dimethoxyquinolin-4yl)oxy)pyridin-2-yl)-1-(2-(dimethylamino)-2-oxoethyl)-5-(4-fluorophenyl)-4-oxo-1,4-dihydropyridine-3-carboxamide]: the IC50 was 39.6 nM on human MET kinase L1195V; 3.8 nM at human MET kinase Y1230S; 14.5 nM at human MET kinase Y1230C; 13.5 nM at human MET kinase D1228N; 7.8 nM on human MET kinase Y1230H; 3 nM in test [1]. The IC50 on human MET kinase F1200I was determined as 4.3 nM; at human MET kinase D1228H, 11.5 nM.
For the molecule `COc1cc2nccc(Oc3ccc(NC(=O)c4cn(C(C)C)c(C)c(-c5ccc(F)c(F)c5)c4=O)nc3)c2cc1OC` [Example 28, 5-(3,4-difluorophenyl)-N-(5-((6,7-dimethoxyquinolin-4yl)oxy)pyridin-2-yl)-1-isopropyl-6-methyl-4-oxo-1,4-dihydropyridine-3-carboxamide], the IC50 amounted to 4 nM against human MET kinase L1195V; 1.8 nM on human MET kinase Y1230S; 1.7 nM on human MET kinase Y1230C; 3.6 nM at human MET kinase D1228N; 7.8 nM at human MET kinase Y1230H; 3 nM in test [1]. Besides, the IC50 amounted to 2.4 nM on human MET kinase F1200I and 1.4 nM at human MET kinase D1228H.
Regarding `COc1cc2nccc(Oc3ccc(NC(=O)c4cn(CCC(C)C)cc(-c5ccc(F)cc5F)c4=O)nc3)c2cc1OC` [Example 36, 5-(2,4-difluorophenyl)-N-(5-((6,7-dimethoxyquinolin-4yl)oxy)pyridin-2-yl)-1-isopentyl-4-oxo-1,4-dihydropyridine-3-carboxamide], the IC50 at human MET kinase L1195V worked out at 14.4 nM; on human MET kinase Y1230S, 2.3 nM; on human MET kinase Y1230C, 2.8 nM; on human MET kinase D1228N it was 4.8 nM; on human MET kinase Y1230H, 4.4 nM; in test [1] it was 8 nM. Moreover, the results for the IC50 against human MET kinase F1200I and at human MET kinase D1228H were 3.2 nM and 1.8 nM, respectively.
Regarding `COc1ccc(-c2cn(C(C)C)cc(C(=O)Nc3ccc(Oc4ccnc5cc(OC)c(OC)cc45)cn3)c2=O)cc1` [Example 30, N-(5-((6,7-dimethoxyquinolin-4yl)oxy)pyridin-2-yl)-1-isopropyl-5-(4-methoxyphenyl)-4-oxo-1,4-dihydropyridine-3-carboxamide], the IC50 against human MET kinase L1195V stood at 39.9 nM; at human MET kinase Y1230S it was 89.2 nM; at human MET kinase Y1230C it was 83.5 nM; on human MET kinase D1228N it was 100 nM; on human MET kinase Y1230H it was 103 nM; in test [1], 5 nM. Also, the IC50 was found to be 59.1 nM against human MET kinase F1200I and 57.4 nM on human MET kinase D1228H.
For `COc1ccc2nccc(Oc3ccc(NC(=O)c4cn(C)cc(-c5ccc(F)cc5)c4=O)nc3)c2c1` [Example 41, 5-(4-fluorophenyl)-N-(5-((6-methoxyquinolin-4yl)oxy)pyridin-2-yl)-1-methyl-4-oxo-1,4-dihydropyridine-3-carboxamide], the IC50 against human MET kinase L1195V was 2220 nM; on human MET kinase Y1230S it was 226 nM; on human MET kinase Y1230C it was 173 nM; at human MET kinase D1228N, 646 nM; at human MET kinase Y1230H it was 328 nM; in test [1] it was 33 nM. The IC50 is 105 nM at human MET kinase F1200I and 258 nM at human MET kinase D1228H.
Turning to `COc1ccc2nccc(Oc3ccc(NC(=O)c4cn(C(C)C)c(C)c(-c5ccc(F)cc5)c4=O)nc3)c2c1` [Example 33, 5-(4-fluorophenyl)-1-isopropyl-N-(5-((6-methoxyquinolin-4-yl)oxy)pyridin-2-yl)-6-methyl-4-oxo-1,4-dihydropyridine-3-carboxamide], the IC50 against human MET kinase L1195V is 20.2 nM; at human MET kinase Y1230S, 5 nM; at human MET kinase Y1230C, 2.7 nM; on human MET kinase D1228N, 13.3 nM; on human MET kinase Y1230H, 11.2 nM; in test [1] it was 5 nM. Moreover, the IC50 against human MET kinase F1200I worked out at 4.6 nM; at human MET kinase D1228H it was 5.2 nM.
In the case of `COc1cc2nccc(Oc3ccc(NC(=O)c4cn(CCN(C)C)cc(-c5ccc(F)c(F)c5)c4=O)nc3)c2cc1OC` [Example 43, 5-(3,4-difluorophenyl)-N-(5-((6,7-dimethoxyquinolin-4-yl)oxy)pyridin-2-yl)-1-], the IC50 at human MET kinase L1195V is 14.2 nM; at human MET kinase Y1230S, 1.1 nM; on human MET kinase Y1230C it was 1.4 nM; at human MET kinase D1228N it was 2.7 nM; at human MET kinase Y1230H, 2.9 nM; in test [1], 5 nM. Moreover, the figures for the IC50 at human MET kinase F1200I and at human MET kinase D1228H were 2 nM and 1.6 nM, respectively.
